From ChEMBL document CHEMBL4184177, “Synthesis and bioevaluation study of novel N-methylpicolinamide and thienopyrimidine derivatives as selectivity c-Met kinase inhibitors” (Bioorg Med Chem, 2018)
pIC50: −log10 of the molar value. The source made the active and inactive calls. No cut-off for these calls is given here.

How the values were obtained:
[1] = target: Mast/stem cell growth factor receptor Kit (Homo sapiens, UniProt P10721); test: Inhibition of c-Kit (unknown origin) using FAM-labeled peptide substrate after 10 mins by mobility shift assay
Sequence of Mast/stem cell growth factor receptor Kit (P10721 whole entry): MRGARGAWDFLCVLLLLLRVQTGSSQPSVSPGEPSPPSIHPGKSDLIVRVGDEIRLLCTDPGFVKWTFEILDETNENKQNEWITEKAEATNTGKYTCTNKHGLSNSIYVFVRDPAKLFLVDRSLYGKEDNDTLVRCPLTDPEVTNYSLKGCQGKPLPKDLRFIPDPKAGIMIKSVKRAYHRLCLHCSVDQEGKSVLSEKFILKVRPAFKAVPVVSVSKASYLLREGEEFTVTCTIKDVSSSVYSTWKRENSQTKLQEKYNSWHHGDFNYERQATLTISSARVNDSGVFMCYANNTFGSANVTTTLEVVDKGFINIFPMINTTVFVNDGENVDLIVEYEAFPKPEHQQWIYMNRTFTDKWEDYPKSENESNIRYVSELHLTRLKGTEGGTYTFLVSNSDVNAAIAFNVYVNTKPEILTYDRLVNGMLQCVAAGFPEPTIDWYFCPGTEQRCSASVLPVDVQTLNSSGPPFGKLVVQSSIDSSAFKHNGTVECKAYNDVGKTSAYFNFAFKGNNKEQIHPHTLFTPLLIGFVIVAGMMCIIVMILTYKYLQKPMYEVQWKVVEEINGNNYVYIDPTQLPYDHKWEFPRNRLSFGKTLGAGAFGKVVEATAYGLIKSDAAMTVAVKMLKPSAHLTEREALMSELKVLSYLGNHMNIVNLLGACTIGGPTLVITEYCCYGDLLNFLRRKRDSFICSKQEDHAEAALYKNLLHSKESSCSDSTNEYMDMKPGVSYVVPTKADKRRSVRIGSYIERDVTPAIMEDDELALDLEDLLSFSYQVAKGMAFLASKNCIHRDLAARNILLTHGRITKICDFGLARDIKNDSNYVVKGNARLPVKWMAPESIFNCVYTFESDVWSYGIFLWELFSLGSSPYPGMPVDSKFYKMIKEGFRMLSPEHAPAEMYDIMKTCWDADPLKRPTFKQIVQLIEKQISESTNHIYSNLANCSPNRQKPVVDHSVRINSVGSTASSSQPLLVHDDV

HepG2 [2] = test: Induction of morphological changes in human HepG2 cells assessed as cell shrinkage at 0.47 uM by acridine orange dye based inverted microscopy and fluorescence microscopic method; type: functional
HepG2 [3] = test: Induction of apoptosis in human HepG2 cells assessed as early apoptotic cells at 0.47 uM by Annexin V-FITC/propidium iodide staining based flow cytometry (reference value: 1.11%); type: functional
MCF7 [4] = test: Potency index, ratio of foretinib IC50 to compound IC50 for human MCF7 cells; type: functional
HepG2 [5] = test: Induction of apoptosis in human HepG2 cells assessed as necrotic cells at 0.23 uM by Annexin V-FITC/propidium iodide staining based flow cytometry (reference value: 0.28%); type: functional
[6] = target: Epidermal growth factor receptor (Homo sapiens, UniProt P00533); test: Inhibition of EGFR (unknown origin) using FAM-labeled peptide substrate after 10 mins by mobility shift assay
Sequence of Epidermal growth factor receptor (P00533 whole entry): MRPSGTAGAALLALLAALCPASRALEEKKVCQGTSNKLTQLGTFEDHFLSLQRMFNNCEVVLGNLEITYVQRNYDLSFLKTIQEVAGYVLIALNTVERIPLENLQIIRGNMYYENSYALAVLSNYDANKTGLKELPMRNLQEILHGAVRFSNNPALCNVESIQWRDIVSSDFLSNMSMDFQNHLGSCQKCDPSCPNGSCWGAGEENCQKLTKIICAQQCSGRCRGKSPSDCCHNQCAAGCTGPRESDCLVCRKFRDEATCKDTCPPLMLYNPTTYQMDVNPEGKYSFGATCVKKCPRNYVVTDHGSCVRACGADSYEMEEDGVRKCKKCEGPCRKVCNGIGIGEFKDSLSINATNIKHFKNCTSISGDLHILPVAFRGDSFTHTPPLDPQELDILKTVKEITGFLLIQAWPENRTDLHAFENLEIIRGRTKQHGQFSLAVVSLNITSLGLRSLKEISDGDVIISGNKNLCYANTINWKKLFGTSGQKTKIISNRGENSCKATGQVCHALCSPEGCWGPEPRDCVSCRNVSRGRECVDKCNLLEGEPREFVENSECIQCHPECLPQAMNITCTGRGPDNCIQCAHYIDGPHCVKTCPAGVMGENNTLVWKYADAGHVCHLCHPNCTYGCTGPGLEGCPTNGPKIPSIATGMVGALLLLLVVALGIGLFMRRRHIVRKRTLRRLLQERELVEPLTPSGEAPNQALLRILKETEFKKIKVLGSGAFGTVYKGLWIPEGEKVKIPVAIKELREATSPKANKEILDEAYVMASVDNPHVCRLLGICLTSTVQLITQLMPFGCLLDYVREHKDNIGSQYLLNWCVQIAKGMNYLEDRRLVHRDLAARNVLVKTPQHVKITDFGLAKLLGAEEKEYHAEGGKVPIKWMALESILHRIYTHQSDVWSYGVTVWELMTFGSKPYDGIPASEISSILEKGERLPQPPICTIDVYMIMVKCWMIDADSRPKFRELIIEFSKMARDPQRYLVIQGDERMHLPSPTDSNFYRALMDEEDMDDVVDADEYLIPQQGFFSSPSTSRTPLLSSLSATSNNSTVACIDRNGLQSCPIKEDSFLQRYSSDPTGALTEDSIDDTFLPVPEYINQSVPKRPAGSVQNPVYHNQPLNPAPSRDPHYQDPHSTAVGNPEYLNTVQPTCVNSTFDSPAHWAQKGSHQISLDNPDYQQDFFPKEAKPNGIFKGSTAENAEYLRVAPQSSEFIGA

HepG2 [7] = test: Induction of apoptosis in human HepG2 cells assessed as necrotic cells at 0.47 uM by Annexin V-FITC/propidium iodide staining based flow cytometry (reference value: 0.28%); type: functional
MCF7 [8] = test: cells; conditions: Homo sapiens, MCF7, 72 h
Description: Cytotoxicity against human MCF7 cells after 72 hrs by MTT assay

HepG2 [9] = test: Induction of apoptosis in human HepG2 cells assessed as live cells at 0.23 uM by Annexin V-FITC/propidium iodide staining based flow cytometry (reference value: 96.54%); type: functional
HepG2 [10] = test: Potency index, ratio of foretinib IC50 to compound IC50 for human HepG2 cells; type: functional
HepG2 [11] = test: Induction of apoptosis in human HepG2 cells assessed as live cells at 0.47 uM by Annexin V-FITC/propidium iodide staining based flow cytometry (reference value: 96.54%); type: functional
[12] = target: Vascular endothelial growth factor receptor 2 (Homo sapiens, UniProt P35968); test: Inhibition of VEGFR2 (unknown origin) using FAM-labeled peptide substrate after 10 mins by mobility shift assay
Sequence of Vascular endothelial growth factor receptor 2 (P35968 whole entry): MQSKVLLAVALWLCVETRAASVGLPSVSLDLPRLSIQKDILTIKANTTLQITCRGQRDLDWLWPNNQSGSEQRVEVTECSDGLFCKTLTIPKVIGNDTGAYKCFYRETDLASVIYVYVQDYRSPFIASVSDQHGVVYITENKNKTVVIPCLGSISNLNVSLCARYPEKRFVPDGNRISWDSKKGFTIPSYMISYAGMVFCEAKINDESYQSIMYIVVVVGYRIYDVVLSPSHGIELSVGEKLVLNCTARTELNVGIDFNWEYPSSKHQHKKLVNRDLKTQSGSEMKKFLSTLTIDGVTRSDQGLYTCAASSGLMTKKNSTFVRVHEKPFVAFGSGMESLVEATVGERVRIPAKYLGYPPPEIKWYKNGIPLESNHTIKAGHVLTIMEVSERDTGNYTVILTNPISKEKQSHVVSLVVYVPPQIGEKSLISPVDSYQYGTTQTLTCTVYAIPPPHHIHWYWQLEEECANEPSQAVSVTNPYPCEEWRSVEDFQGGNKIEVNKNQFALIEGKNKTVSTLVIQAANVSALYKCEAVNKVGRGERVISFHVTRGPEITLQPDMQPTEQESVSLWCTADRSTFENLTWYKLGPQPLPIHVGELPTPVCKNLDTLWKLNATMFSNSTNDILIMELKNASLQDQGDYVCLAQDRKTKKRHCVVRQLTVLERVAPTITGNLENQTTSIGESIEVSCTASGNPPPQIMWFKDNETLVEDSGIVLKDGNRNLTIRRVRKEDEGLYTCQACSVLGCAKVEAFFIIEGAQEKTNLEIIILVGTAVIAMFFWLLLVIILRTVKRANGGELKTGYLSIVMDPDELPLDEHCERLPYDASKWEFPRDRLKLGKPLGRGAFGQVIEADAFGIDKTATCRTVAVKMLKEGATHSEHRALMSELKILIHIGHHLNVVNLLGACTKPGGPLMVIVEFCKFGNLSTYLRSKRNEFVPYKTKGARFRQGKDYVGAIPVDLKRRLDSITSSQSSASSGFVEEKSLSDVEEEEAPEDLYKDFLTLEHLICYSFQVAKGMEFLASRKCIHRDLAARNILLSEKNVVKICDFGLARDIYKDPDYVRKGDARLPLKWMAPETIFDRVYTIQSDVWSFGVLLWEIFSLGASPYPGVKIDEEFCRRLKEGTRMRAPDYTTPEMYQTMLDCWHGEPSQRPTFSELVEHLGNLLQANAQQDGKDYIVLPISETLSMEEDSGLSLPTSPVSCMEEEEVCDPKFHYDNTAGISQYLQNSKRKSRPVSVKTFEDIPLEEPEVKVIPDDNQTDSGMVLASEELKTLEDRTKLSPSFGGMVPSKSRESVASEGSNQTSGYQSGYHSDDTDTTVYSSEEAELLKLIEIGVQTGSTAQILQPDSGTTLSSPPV

HepG2 [13] = test: Induction of apoptosis in human HepG2 cells assessed as early apoptotic cells at 0.23 uM by Annexin V-FITC/propidium iodide staining based flow cytometry (reference value: 1.11%); type: functional
HepG2 [14] = test: Induction of apoptosis in human HepG2 cells assessed as necrotic cells at 0.94 uM by Annexin V-FITC/propidium iodide staining based flow cytometry (reference value: 0.28%); type: functional
HepG2 [15] = test: Induction of apoptosis in human HepG2 cells by Annexin V-FITC/propidium iodide staining based flow cytometry; type: functional, cell-based
HepG2 [16] = test: Induction of apoptosis in human HepG2 cells assessed as late apoptotic cells at 0.23 uM by Annexin V-FITC/propidium iodide staining based flow cytometry (reference value: 2.07%); type: functional
HepG2 [17] = test: Induction of morphological changes in human HepG2 cells assessed as chromatin condensation at 0.47 uM by acridine orange dye based inverted microscopy and fluorescence microscopic method; type: functional, cell-based
HepG2 [18] = test: Induction of apoptosis in human HepG2 cells assessed as early apoptotic cells at 0.94 uM by Annexin V-FITC/propidium iodide staining based flow cytometry (reference value: 1.11%); type: functional
[19] = target: Hepatocyte growth factor receptor (Homo sapiens, UniProt P08581); test: Inhibition of c-Met (unknown origin) using FAM-labeled peptide substrate after 10 mins by mobility shift assay
Sequence of Hepatocyte growth factor receptor (P08581 whole entry): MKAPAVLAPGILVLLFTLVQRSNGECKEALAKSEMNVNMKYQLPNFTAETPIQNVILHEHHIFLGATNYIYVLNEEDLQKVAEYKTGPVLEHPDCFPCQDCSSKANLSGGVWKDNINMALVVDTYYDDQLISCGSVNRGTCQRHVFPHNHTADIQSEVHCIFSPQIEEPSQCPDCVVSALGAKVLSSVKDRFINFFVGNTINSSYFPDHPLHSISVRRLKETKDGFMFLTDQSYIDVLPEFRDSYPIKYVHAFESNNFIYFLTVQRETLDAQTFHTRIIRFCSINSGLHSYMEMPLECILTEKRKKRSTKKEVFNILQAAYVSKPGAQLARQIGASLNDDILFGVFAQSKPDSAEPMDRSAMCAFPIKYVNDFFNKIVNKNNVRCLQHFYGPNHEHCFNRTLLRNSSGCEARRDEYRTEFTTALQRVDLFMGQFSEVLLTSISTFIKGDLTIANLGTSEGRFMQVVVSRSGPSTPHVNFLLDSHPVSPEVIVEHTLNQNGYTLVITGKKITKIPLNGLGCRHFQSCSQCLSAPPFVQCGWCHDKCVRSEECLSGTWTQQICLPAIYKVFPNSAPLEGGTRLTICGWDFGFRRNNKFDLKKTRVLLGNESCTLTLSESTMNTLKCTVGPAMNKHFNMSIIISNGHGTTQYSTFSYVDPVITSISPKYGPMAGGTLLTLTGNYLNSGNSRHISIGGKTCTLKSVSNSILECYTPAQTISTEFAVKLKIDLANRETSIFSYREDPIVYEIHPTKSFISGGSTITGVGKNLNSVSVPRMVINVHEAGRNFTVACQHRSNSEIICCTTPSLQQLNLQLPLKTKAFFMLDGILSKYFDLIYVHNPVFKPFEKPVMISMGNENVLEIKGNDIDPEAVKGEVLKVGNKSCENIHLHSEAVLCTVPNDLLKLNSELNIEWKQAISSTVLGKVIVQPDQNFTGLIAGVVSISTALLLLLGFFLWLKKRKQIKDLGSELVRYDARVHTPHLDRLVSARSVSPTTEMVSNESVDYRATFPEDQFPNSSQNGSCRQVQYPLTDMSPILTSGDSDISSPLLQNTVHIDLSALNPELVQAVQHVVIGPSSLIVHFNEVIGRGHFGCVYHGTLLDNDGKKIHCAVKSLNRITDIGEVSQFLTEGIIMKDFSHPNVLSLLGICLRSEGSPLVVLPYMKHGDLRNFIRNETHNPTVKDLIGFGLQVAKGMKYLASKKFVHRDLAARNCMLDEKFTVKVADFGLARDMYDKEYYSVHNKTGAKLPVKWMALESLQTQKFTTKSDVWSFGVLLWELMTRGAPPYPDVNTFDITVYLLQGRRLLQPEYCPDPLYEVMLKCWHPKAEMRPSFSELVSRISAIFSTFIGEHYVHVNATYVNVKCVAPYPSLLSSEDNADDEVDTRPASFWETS

A549 = test: Cytotoxicity against human A549 cells after 72 hrs by MTT assay; conditions: A549, 72 h
HepG2 [20] = test: Induction of apoptosis in human HepG2 cells assessed as live cells at 0.94 uM by Annexin V-FITC/propidium iodide staining based flow cytometry (reference value: 96.54%); type: functional
HepG2 [21] = test: cells; conditions: Homo sapiens, HepG2, 72 h
Description: Cytotoxicity against human HepG2 cells after 72 hrs by MTT assay

HepG2 [22] = test: Induction of apoptosis in human HepG2 cells assessed as late apoptotic cells at 0.47 uM by Annexin V-FITC/propidium iodide staining based flow cytometry (reference value: 2.07%); type: functional
[23] = target: T1, Receptor-type tyrosine-protein kinase FLT3 (Homo sapiens, UniProt P36888); test: Inhibition of FLT3 (unknown origin) using FAM-labeled peptide substrate after 10 mins by mobility shift assay
T1 sequence (P36888 whole entry): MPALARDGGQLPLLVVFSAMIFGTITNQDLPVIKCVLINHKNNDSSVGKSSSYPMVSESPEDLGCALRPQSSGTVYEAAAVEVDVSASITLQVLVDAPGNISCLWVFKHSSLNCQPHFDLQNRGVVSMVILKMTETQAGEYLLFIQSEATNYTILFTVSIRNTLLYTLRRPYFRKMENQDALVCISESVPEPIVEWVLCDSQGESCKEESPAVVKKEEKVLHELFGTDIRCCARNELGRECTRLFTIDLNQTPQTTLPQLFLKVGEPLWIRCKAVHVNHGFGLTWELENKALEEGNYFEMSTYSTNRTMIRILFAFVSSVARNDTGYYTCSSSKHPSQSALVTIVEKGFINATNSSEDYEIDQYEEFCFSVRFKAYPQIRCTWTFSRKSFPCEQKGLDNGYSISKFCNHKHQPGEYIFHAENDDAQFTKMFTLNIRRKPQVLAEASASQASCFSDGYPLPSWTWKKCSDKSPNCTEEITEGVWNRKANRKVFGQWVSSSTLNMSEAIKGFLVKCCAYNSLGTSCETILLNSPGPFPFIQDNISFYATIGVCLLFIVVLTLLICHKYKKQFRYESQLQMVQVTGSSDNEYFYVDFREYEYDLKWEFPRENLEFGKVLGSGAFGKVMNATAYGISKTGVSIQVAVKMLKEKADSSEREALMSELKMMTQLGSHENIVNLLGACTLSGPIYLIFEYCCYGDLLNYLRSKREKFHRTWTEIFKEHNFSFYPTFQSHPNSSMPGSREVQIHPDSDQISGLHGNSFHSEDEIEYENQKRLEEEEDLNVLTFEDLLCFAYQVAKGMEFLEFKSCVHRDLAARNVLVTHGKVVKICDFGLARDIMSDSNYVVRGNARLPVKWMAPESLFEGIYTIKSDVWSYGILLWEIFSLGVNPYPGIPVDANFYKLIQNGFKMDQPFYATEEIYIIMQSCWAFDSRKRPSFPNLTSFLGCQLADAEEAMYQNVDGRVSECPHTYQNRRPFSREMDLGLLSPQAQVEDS

HepG2 [24] = test: Induction of apoptosis in human HepG2 cells assessed as late apoptotic cells at 0.94 uM by Annexin V-FITC/propidium iodide staining based flow cytometry (reference value: 2.07%); type: functional

pIC50 [1]: 5.43 | pIC50 [6]: 5.16 | pIC50 (MCF7 [8]): 6.13 | pIC50 [12]: 6.35 | pIC50 [19]: 7.72 | pIC50 (HepG2 [21]): 6.33 | pIC50 [23]: 6.02
Compound: Cc1cc(=O)n(-c2ccc(F)cc2)nc1C(=O)Nc1ccc(Oc2ncnc3ccsc23)c(F)c1
Activity (HepG2 [2]): Active | Activity (HepG2 [3]): 16.09% | Ratio IC50 (MCF7 [4]): 3.73 - 5.39 | Activity (HepG2 [5]): 1.28% | Activity (HepG2 [7]): 1.25% | Activity (HepG2 [9]): 84.11% | Ratio IC50 (HepG2 [10]): 3.73 - 5.39 | Activity (HepG2 [11]): 72.36% | Activity (HepG2 [13]): 8.08% | Activity (HepG2 [14]): 2.31% | Activity (HepG2 [15]): Dose-dependent effect | Activity (HepG2 [16]): 6.54% | Activity (HepG2 [17]): Active | Activity (HepG2 [18]): 13.9% | pIC50 (A549): 6.24 | Activity (HepG2 [20]): 62.8% | Activity (HepG2 [22]): 10.3% | Activity (HepG2 [24]): 21%
